Experimental data published in patent US20090176811A1, “Substituted 5,6,7,8-Tetrahydro-pyrido[4,3-d]pyrimidine-2-yl Compounds and 5,6,7,8-Tetrahydro-quinazoline-2-yl Compounds” (GRUENENTHAL GmbH, priority 2004, published 2009).

Assays:
[1] = target: T1, NA transporter (Rattus norvegicus, UniProt Q63380); test: Noradrenalin uptake inhibition in rat brain synaptosomes (hypothalamus); type: biochemical
T1 construct: from tissue; host or cells: rat hypothalamus synaptosomes (P2 fraction)
In short: (§1)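 Freshly isolated P2 synaptosomes from rat hypothalamus (noradrenalin) or medulla and pons (5-HT) incubated at room temperature under O2 with [3H]-NA for 7.5 min or [3H]-5-HT for 5 min. Uptake measured by filtration and scintillation counting.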

[2] = target: T2, mGluR5 receptor (Sus scrofa, UniProt I3LUI7); test: Affinity for the mGluR5 receptor ([3H]-MPEP binding, pig brain homogenate); settings: 10 μM compound, 15 nM [3H]-MPEP
T2 construct: 450 μg of protein from brain homogenate is incubated; from tissue; host or cells: pig brain hemispheres without medulla, cerebellum and pons
Experimental: III. Method for Determining Affinity for the mGluR5 Receptor
Pig brain homogenate is produced by homogenisation (Polytron Pt 3000, Kinematica AG, 10,000 rpm (revolutions per minute) for 90 seconds) of pig brain hemispheres without medulla, cerebellum and pons in a buffer of pH 8.0 (30 mM Hepes, Sigma, order number H3375+1 tablet Complete Roche Diagnostics, order number 1836145 made up to 100 ml) in a ratio of 1:20 (brain weight/volume) and differential centrifugation at 900 g and 40,000 g. 450 μg of protein from brain homogenate is incubated in each case in 250 μl incubation batches in 96-well microtitre plates with 15 nM ^3[H]-MPEP (Tocris, order number R1212) and the compounds to be investigated (in each case 10 μM in the test) in the above-stated buffer at room temperature for 60 minutes.
The batches are then filtered with the assistance of a Brandel Cell Harvester (Brandel, Grade Robotic 9600) on Unifilter plates with glass filter mats (Perkin Elmer, order number 6005177) and then rewashed 3 times with buffer of the above-stated composition using 250 μl per sample. The filter plates are then dried for 60 minutes at 55° C. Then 30 μl of Ultima Gold scintillating material (Packard BioScience, order number 6013159) is added per well and after 3 hours the samples are measured using the B counter ([…], Perkin Elmer). Nonspecific binding is determined by the addition of 10 μM 2-methyl-6-(phenylethynyl)-pyridine (Tocris, order number 1212).

[3] = target: T3, 5-HT transporter (Rattus norvegicus, UniProt P31652); test: 5-HT uptake inhibition in rat brain synaptosomes (medulla and pons); type: biochemical
T3 construct: from tissue; host or cells: rat medulla and pons synaptosomes (P2 fraction)
In short: as §1

T3 sequence (P31652 whole entry): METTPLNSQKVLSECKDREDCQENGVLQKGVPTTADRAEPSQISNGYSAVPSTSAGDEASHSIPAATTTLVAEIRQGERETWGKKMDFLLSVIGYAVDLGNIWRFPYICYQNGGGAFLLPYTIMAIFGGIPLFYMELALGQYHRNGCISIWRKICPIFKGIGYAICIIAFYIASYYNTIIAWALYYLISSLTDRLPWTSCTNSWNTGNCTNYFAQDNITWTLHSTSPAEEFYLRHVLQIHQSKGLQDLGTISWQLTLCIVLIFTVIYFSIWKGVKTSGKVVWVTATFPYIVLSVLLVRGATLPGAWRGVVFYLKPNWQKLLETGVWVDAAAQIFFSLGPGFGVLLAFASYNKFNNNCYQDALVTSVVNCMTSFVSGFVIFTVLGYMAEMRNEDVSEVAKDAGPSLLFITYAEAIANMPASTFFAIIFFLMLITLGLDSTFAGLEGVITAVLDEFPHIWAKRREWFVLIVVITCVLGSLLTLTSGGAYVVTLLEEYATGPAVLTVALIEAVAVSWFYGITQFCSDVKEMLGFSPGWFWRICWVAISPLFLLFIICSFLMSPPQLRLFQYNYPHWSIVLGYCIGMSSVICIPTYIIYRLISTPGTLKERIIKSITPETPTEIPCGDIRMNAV
T2 sequence (I3LUI7 19-1212): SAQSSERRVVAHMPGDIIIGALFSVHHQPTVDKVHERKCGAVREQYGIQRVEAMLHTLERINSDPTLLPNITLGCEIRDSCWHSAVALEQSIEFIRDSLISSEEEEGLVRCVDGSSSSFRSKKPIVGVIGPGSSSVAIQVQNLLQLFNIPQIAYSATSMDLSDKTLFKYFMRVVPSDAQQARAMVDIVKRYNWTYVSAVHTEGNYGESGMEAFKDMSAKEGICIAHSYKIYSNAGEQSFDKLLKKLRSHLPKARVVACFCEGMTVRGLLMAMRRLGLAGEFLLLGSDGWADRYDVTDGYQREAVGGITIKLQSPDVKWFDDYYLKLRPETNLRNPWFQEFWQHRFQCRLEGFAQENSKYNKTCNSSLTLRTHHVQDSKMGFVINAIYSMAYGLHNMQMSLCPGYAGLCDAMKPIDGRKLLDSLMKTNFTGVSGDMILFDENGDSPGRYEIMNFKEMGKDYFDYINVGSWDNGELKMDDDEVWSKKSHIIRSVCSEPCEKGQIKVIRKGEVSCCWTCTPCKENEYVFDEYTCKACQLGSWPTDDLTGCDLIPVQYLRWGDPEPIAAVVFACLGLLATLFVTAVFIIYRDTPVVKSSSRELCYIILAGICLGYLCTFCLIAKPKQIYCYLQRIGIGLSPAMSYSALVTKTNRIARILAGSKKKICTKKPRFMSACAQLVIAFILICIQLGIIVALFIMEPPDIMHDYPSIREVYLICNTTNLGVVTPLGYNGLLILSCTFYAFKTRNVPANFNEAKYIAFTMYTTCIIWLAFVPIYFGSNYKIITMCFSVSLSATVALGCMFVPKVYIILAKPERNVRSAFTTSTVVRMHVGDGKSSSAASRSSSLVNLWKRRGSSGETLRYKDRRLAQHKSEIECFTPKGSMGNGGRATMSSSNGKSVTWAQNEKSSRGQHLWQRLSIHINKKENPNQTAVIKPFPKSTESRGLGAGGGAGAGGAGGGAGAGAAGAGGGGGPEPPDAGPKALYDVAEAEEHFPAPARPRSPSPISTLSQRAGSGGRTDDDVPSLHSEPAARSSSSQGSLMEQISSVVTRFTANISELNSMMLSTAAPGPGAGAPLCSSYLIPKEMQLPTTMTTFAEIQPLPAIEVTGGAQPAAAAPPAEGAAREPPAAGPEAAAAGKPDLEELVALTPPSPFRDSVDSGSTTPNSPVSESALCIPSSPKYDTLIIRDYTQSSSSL
T1 sequence (Q63380 1-617): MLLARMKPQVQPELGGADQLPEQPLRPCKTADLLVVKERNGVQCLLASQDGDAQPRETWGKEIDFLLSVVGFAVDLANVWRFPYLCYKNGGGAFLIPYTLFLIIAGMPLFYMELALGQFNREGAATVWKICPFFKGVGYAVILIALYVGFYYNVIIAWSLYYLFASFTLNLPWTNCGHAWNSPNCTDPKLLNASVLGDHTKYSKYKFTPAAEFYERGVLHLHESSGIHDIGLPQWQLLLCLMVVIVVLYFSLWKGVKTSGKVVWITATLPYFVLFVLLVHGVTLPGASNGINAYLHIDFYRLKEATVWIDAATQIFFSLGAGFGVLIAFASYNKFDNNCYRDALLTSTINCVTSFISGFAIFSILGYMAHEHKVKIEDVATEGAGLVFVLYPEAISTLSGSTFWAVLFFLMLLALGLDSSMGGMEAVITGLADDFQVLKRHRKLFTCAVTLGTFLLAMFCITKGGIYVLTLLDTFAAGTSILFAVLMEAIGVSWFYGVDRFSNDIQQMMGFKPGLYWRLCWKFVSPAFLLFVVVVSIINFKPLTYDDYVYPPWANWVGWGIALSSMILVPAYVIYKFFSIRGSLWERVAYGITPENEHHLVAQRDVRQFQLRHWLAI

Structure (SMILES) | inhibition at 10 µM [1] [%] | inhibition at 10 µM [2] [%] | inhibition at 1 µM [3] [%]
O=C(Nc1ncc2c(n1)CCN(C(=O)c1ccc(Cl)c(Cl)c1)C2)c1ccccc1F [Example 113, N-[6-(3,4-dichloro-benzoyl)-5,6,7,8-tetrahydro-pyrido[4,3-d]pyrimidin-2-yl]-2-fluoro-benzamide] | 67 | 31.3 | 45
CCOc1ccccc1C(=O)Nc1ncc2c(n1)CCN(S(=O)(=O)c1ccccc1C(=O)OC)C2 [Example 82, 2-[2-(2-ethoxy-benzoylamino)-7,8-dihydro-5H-pyrido[4,3-d]pyrimidine-6-sulfonyl]-benzoic acid methyl ester] | 32 | 36.3 | –
Cc1ccc(C(=O)Nc2ncc3c(n2)CCN(S(=O)(=O)c2cc(F)ccc2C)C3)cc1 [Example 107, N-[6-(5-fluoro-2-methyl-benzenesulfonyl)-5,6,7,8-tetrahydro-pyrido[4,3-d]pyrimidin-2-yl]-4-methyl-benzamide] | 39 | 38.2 | 36
O=C(Nc1ncc2c(n1)CCN(C(=O)c1ccc(Cl)c(Cl)c1)C2)c1cccnc1 [Example 156, N-[6-(3,4-dichloro-benzoyl)-5,6,7,8-tetrahydro-pyrido[4,3-d]pyrimidin-2-yl]-nicotinamide] | 50 | 46 | –
Cc1cc(C(=O)NC2CCc3nc(NC(=O)c4cccs4)ncc3C2)ccc1Br (stereo not shown) [Example 115, thiophene-2-carboxylic acid [6-(4-bromo-3-methyl-benzoylamino)-5,6,7,8-tetrahydro-quinazolin-2-yl]-amide] | 49 | 34.3 | 56
Cc1ccc(C(=O)N2CCc3nc(NC(=O)c4cccc5ccccc45)ncc3C2)cc1F [Example 154, naphthalene-1-carboxylic acid [6-(3-fluoro-4-methyl-benzoyl)-5,6,7,8-tetrahydro-pyrido[4,3-d]pyrimidin-2-yl]-amide] | 50 | 30.7 | –
CCCC(=O)Nc1ncc2c(n1)CCC(NC(=O)C=Cc1cccc(C(F)(F)F)c1)C2 (stereo not shown) [Example 168, N-(2-butyrylamino-5,6,7,8-tetrahydro-quinazolin-6-yl)-3-(3-trifluoromethyl-phenyl)-acrylamide] | – | 33.5 | 46
CC(C)(C)OC(=O)N1CCC(C(=O)NC2CCc3nc(NC(=O)c4ccc(F)cc4)ncc3C2)CC1 (stereo not shown) [Example 194, 4-[2-(4-fluoro-benzoylamino)-5,6,7,8-tetrahydro-quinazolin-6-ylcarbamoyl]-piperidine-1-carboxylic acid tert-butyl ester] | – | 45.6 | –
Cc1nc(C(F)(F)F)ccc1C(=O)NC1CCc2nc(NC(=O)c3ccc(F)cc3)ncc2C1 (stereo not shown) [Example 197, N-[2-(4-fluoro-benzoylamino)-5,6,7,8-tetrahydro-quinazolin-6-yl]-2-methyl-6-trifluoromethyl-nicotinamide] | – | 32.1 | –
CCc1ccc(C(=O)Nc2ncc3c(n2)CCN(S(=O)(=O)c2ccc(OC)cc2)C3)cc1 [Example 172, 4-ethyl-N-[6-(4-methoxy-benzenesulfonyl)-5,6,7,8-tetrahydro-pyrido[4,3-d]pyrimidin-2-yl]-benzamide] | 85 | 70.1 | 57
COc1ccccc1C(=O)Nc1ncc2c(n1)CCN(C(=O)c1cc(-c3ccc(Cl)cc3)oc1C)C2 [Example 78, N-{6-[5-(4-chloro-phenyl)-2-methyl-furan-3-carbonyl]-5,6,7,8-tetrahydro-pyrido[4,3-d]pyrimidin-2-yl}-2-methoxy-benzamide] | – | 41.1 | –
Cc1ccc(C(=O)Nc2ncc3c(n2)CCN(C(=O)COc2cccc(Cl)c2)C3)cc1 [Example 189, N-{6-[2-(3-chloro-phenoxy)-acetyl]-5,6,7,8-tetrahydro-pyrido[4,3-d]pyrimidin-2-yl}-4-methyl-benzamide] | 53 | 39.5 | 46
O=C(Nc1ncc2c(n1)CCN(C(=O)c1ccc(F)cc1F)C2)c1ccc(Cl)cc1 [Example 152, 4-chloro-N-[6-(2,4-difluoro-benzoyl)-5,6,7,8-tetrahydro-pyrido[4,3-d]pyrimidin-2-yl]-benzamide] | – | 34 | 33
CCCCC(C)CCC(=O)N1CCc2nc(NC(=O)c3cccc4ccccc34)ncc2C1 (stereo not shown) [Example 193, naphthalene-1-carboxylic acid [6-(4-methyl-octanoyl)-5,6,7,8-tetrahydro-pyrido[4,3-d]pyrimidin-2-yl]-amide] | 43 | 51.8 | 38
Cc1ccc(S(=O)(=O)N2CCc3nc(NC(=O)c4cccc(F)c4)ncc3C2)cc1 [Example 143, 3-fluoro-N-[6-(toluene-4-sulfonyl)-5,6,7,8-tetrahydro-pyrido[4,3-d]pyrimidin-2-yl]-benzamide] | 53 | 37.2 | –
O=C(Nc1ncc2c(n1)CCC(NS(=O)(=O)c1cc(Cl)sc1Cl)C2)c1cccs1 (stereo not shown) [Example 180, thiophene-2-carboxylic acid [6-(2,5-dichloro-thiophene-3-sulfonylamino)-5,6,7,8-tetrahydro-quinazolin-2-yl]-amide] | 34 | 86.7 | –
O=C(Cc1cccc2ccccc12)NC1CCc2nc(NC(=O)c3cccs3)ncc2C1 (stereo not shown) [Example 177, thiophene-2-carboxylic acid [6-(2-naphthalen-1-yl-acetylamino)-5,6,7,8-tetrahydro-quinazolin-2-yl]-amide] | – | 42 | 39
